The conditions of data set [1]: Sprague Dawley, rat, in vivo, iv.
Description: (§1) In the second rat toxicity study, Charles River Study Number 20000328, CoQ10 was administered as short intravenous infusions at the rate of 1.0 mL/min three times a week for four weeks. For the toxicokinetic evaluation, three groups of nine male and nine females received 62.5, 125, and 250 mg/kg CoQ10 IV Formulation (Table 20). On Days 1 and 26, samples were collected from subgroups of three males and three females at 5 and 15 minutes, and at 1, 4, 24 and 48 hr post-dose.
(§2) 4-Week Repeat-Dose Toxicology Study of CoQ10 IV Formulation In Rats: Four groups of young adult Sprague Dawley rats (n=10/sex/group) received the vehicle (PBS containing Poloxamer 188 and DMPC) or the test article at doses of 0, 62.5, 125 and 250 mg/kg by IV injection three times per week (Charles River Laboratories Study Number 20000328; Table 26). An additional 5 rats/sex were included in each group and were maintained after treatment for a 2-week recovery period. […] The vehicle was administered at the same dose volume as the high-dose group. Additionally, three groups of 9 animals/sex served as toxicokinetic (TK) animals and received the test article in the same manner as the main study groups. […] Blood samples for determination of the plasma concentrations of the test article were collected from cohorts of three TK animals per sex per dose group at 5, 15 and 60 minutes and at 4, 24 and 48 hours after dosing on Days 1 and 28 (after the last dose).
The conditions of data set [2]: beagle, dog, in vivo, iv.
Description: In the second dog toxicity study, Charles River Study Number 20000334, CoQ10 IV Formulation was administered as short intravenous infusions at the rate of 5.0 mL/min three times a week for four weeks.
An additional two dogs/sex were included in each group and maintained for a 2-week recovery after treatment. A single test article concentration of 40 mg/mL was provided for use on the study. […] Parameters evaluated included cageside observations, clinical observations, body weight, food consumption, ophthalmoscopy, electrocardiography, clinical pathology, gross pathology, organ weights, and histopathology. Blood samples for determination of the plasma concentrations of CoQ10 IV Formulation were collected pre-dose and at 5, 15, 30 and 60 minutes and at 2, 4, 8 and 24 hours post-dose on Days 1 and 26.
A short description of a further data set: in vivo. To be noted: Sprague Dawley, rat, iv.

SMILES strings stand for the structures. Where two headings read alike, the source gives them in different places.

Description for in vivo: as §1, §2

For `COC1=C(OC)C(=O)C(C/C=C(\C)CC/C=C(\C)CC/C=C(\C)CC/C=C(\C)CC/C=C(\C)CC/C=C(\C)CC/C=C(\C)CC/C=C(\C)CC/C=C(\C)CCC=C(C)C)=C(C)C1=O` [CoQ10, Coenzyme Q10], the AUC0-t in data set [1] (female, 62.5 mg/kg) stood at 1747 µg·h/mL; in data set [1] (female, 125 mg/kg), 3859 µg·h/mL; in data set [1] (female, 250 mg/kg), 8368 µg·h/mL; in data set [1] (male, 62.5 mg/kg), 1953 µg·h/mL; in data set [1] (male, 125 mg/kg), 5037 µg·h/mL; in data set [1] (male, 250 mg/kg), 8873 µg·h/mL. For the same molecule, the AUC0-t was determined as 1207 µg·h/mL in data set [2] (female, 31.25 mg/kg); 2735 µg·h/mL in data set [2] (female, 62.5 mg/kg); 7370 µg·h/mL in data set [2] (female, 125 mg/kg); 1038 µg·h/mL in data set [2] (male, 31.25 mg/kg); 2719 µg·h/mL in data set [2] (male, 62.5 mg/kg); 7151 µg·h/mL in data set [2] (male, 125 mg/kg). Also, the AUC0-t was determined as 2690 µg·h/mL in “in vivo” (female, 62.5 mg/kg); 5110 µg·h/mL in “in vivo” (female, 125 mg/kg); 15500 µg·h/mL in the data set “in vivo” (female, 250 mg/kg); 3000 µg·h/mL in “in vivo” (male, 62.5 mg/kg); 6870 µg·h/mL in “in vivo” (male, 125 mg/kg); 16600 µg·h/mL in “in vivo” (male, 250 mg/kg).

Source of the values: patent US11400058B2, “Intravenous formulations of coenzyme Q10 (CoQ10) and methods of use thereof” (Berg LLC, priority 2010, dated 2022).
